Values belong to the compound of their own block, whether it stands above or below them. Calls of active or inactive are those of the source.
How the values were obtained:
[1] = Counterscreen for inhibitors of Trypanosoma brucei methionyl tRNA synthetase (MetRS): Luminescence-based cell-based high throughput dose response assay to identify compounds that are cytotoxic to Jurkat human T lymphocyte cells.; type: functional
[2] = target: T1, Methionyl-tRNA synthetase, putative (Trypanosoma brucei brucei, UniProt Q38C91); type: functional, Trypanosoma brucei brucei strain 927/4 GUTat10.1
T1 sequence (Q38C91 whole entry): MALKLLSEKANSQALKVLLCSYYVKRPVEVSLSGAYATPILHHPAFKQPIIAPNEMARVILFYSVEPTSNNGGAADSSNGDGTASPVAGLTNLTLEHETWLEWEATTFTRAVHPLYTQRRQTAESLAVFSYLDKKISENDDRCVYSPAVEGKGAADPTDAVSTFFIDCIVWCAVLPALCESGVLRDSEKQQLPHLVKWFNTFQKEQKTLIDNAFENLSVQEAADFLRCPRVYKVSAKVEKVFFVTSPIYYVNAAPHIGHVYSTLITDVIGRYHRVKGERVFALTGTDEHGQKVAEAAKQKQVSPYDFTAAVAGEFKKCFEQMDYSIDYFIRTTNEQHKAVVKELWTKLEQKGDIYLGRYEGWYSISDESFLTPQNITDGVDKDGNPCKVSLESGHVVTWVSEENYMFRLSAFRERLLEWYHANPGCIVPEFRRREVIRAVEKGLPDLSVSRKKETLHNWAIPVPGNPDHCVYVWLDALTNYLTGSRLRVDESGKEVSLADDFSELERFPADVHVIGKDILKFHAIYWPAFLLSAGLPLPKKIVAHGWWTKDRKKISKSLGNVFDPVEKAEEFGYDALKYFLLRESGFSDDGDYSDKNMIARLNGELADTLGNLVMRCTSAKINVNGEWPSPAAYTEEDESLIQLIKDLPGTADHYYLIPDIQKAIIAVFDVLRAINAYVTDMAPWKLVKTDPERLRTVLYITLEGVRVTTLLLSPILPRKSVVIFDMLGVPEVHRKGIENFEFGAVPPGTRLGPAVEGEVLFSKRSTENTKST

[3] = Late stage counterscreen for inhibitors of Trypanosoma brucei methionyl tRNA synthetase (MetRS): Luminescence-based cell-based high throughput dose response assay to identify compounds that are cytotoxic to Jurkat human T lymphocyte cells.; type: functional
[4] = target: T1, Methionyl-tRNA synthetase, putative; type: functional, Trypanosoma brucei brucei strain 927/4 GUTat10.1; remark: listed apart in the source
[5] = target: Protein Tat (Human immunodeficiency virus type 1 group M subtype B (isolate HXB2)(HIV-1), UniProt P04608); type: functional;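 further: tat binding to TAR RNA read out by fluorescence polarization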
[6] = viability of uninfected HEp-2 cells – cell-based, HTS, cytotoxicity control for RSV inhibitor project, dose response (AID 2410); type: functional; conditions: human respiratory syncytial virus
[7] = target: Dual specificity tyrosine-phosphorylation-regulated kinase 1A (Rattus norvegicus, UniProt Q63470); type: biochemical, Homo sapiens
[8] = target: T2, Oxysterols receptor LXR-beta (Homo sapiens, UniProt P55055); type: functional, cell-based;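 further: Cell-based luminescence dose-response assay of agonist activity at LXR, run as a confirmatory counterscreen to a daf-12 agonist screen; HEK293 cells with Gal4-LXR fusion and GAL4-driven luciferase reporter; agonist potency from rising luciferase signal of a Gal4-LXR reporter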
T2 sequence (P55055 whole entry): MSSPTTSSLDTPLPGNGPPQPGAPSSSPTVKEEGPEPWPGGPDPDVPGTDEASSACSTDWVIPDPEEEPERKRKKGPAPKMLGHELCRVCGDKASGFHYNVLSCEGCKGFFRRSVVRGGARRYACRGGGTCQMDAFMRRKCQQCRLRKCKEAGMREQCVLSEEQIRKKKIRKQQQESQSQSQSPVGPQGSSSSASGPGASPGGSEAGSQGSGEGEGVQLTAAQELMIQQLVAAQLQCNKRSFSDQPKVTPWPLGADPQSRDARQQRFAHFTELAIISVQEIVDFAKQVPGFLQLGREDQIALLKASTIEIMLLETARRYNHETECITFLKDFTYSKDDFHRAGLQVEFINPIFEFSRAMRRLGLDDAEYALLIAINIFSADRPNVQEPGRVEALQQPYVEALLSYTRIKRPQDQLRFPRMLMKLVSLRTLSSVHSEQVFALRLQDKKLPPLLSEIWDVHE

[9] = cells
[10] = P. falciparum Dd2 growth inhibitors, dose response, SYBR Green, cherry-picked samples (AID 1159567); type: functional, cell-based
[11] = toxicity to human hepatoma HepG2 cells – cell-based, cherry-picked samples, cytotoxicity control, dose response (AID 1159577); type: functional
[12] = cells; type: functional, cell-based; conditions: INS-1E
[13] = IC50 of insulin release inhibition, rat insulinoma INS-1E line, 5 mM glucose, cell-based (AID 1117331); type: functional
[14] = rise of 4N DNA cells, HeLa – IC50, dose response (AID 1117351); type: functional, cell-based
[15] = rise of 2N DNA cells, HeLa – IC50, dose response (AID 1117349); type: functional, cell-based

Chain of Protein Tat (P04608 whole entry): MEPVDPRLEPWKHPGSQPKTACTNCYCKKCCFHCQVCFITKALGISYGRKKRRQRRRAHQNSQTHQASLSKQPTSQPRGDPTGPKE

SMILES: Cc1nc2ccc(Br)cc2c(O)c1CN1CCCCCC1
IC50 [1]: 83.3 µM (inactive) | IC50 [2]: 6.91 µM (active) | IC50 [3]: > 83.3 µM (inactive) | IC50 [4]: 4.16 µM (active)

IC50 [5]: > 100 µM (active)
SMILES: CCOc1ccc(-c2nnn(CC(=O)c3ccc4c(c3)OCCO4)n2)cc1OCC

SMILES: Oc1ccc(-c2nccc(-c3cccs3)n2)cc1
CC50 [6]: 27.9 µM (active) | AC50 [7]: 6.5 µM (active) | EC50 [8]: > 67.6 µM (inactive) | EC50 [9]: > 67.6 µM (inactive)

SMILES: COc1ccc2c3c(n(C)c2c1)[C@H](CO)NCC31CN(Cc2ccc(-c3ccccn3)cc2)C1
AC50 [10]: 1.15 µM (active) | AC50 [11]: 11.6 µM (active)

SMILES: C[C@@H]1CN([C@@H](C)CO)C(=O)c2c(c3ccccc3n2C)-c2ccccc2CO[C@@H]1CN(C)Cc1cccc(F)c1
AC50 [10]: 3.5 µM (active) | AC50 [11]: 23.5 µM (active)

SMILES: COc1cc(C(=O)OCCCN2CCCN(CCCOC(=O)c3cc(OC)c(OC)c(OC)c3)CC2)cc(OC)c1OC [DILAZEP]
IC50 [12]: 18 µM (inactive) | IC50 [13]: 10.2 µM (inactive)

SMILES: COc1ccc(-c2nc3cc(C4=NNC(=O)CC4C)ccc3[nH]2)cc1 (configuration not stated) [PIMOBENDAN]
IC50 [14]: > 10 µM (inactive) | IC50 [15]: > 10 µM (inactive)

— ChEMBL document CHEMBL1201862, “PubChem BioAssay data set” (2004)
